Consider six compounds from publication PMC4125160, “Neurotoxicity and Mode of Action of N, N-Diethyl-Meta-Toluamide (DEET)” (PLoS ONE, 2014).

pEC50, pIC50: −log10 of the molar value. Like-named read-outs stand apart in the source and are kept apart here.

For test [1], the system named is housefly larval central nervous system. Briefly: Neurophysiological recordings of CNS nerve discharge in housefly larvae. Set-up: species or system Musca domestica. Particulars: for pEC50: Musca domestica. The protocol:
Neurophysiological recordings were performed on the central and peripheral nervous systems of larval Musca domestica. Glass pipette electrodes were pulled from borosilicate glass capillaries on a P-1000 Flaming/Brown micropipette puller (Sutter Instrument, Novato CA, USA). For CNS recordings, it was first excised from the larvae and placed in a separate dish with physiological saline (200 µL) containing: 157 mM NaCl, 3 mM KCl, 2 mM CaCl2, and 4 mM HEPES, pH = 7.25. The CNS was manually transected posterior to the cerebral lobes to disrupt the blood-brain barrier and enhance chemical penetration. Any convenient peripheral nerve trunks were pulled into a recording suction electrode. Amplification and digitization of descending electrical activity originating from the CNS were converted on-line into a rate plot, expressed in Hz (MacLab analog to digital converter hardware and LabChart 7 software, ADInstruments, Colorado Springs, CO, USA). […] After a baseline was established, the CNS preparation was directly exposed to test compound by adding 200 µL of solution to the bath containing 200 µL of saline. The final concentration of solvent in the bath was 0.1% DMSO. Each concentration was recorded for 3–5 min prior to the addition of the next drug concentration. […] Each drug concentration was replicated 3-5 times.

For a further test, the system named is rat Nav 1.4 channel. Set-up: method as in ref 12 = [12]; 12 Scior T , Martinez-Morales E , Cruz S , Salinas-Stefanon E ( 2009 ) In silico modeling of toluene binding site in the pore of voltage-gate sodium channel . J Receptor Ligand Channel Res 2 : 1 – 9 . Particulars: in vitro ref 12; cited from earlier work.
Test [2] deals with housefly larval central nervous system. Briefly: Neurophysiological recordings of CNS nerve discharge in housefly larvae. Particulars: Musca domestica; transected CNS; value (95% CI); read-out: EC50, excitation of nerve firing.
For test [3], the target named is T1, Drosophila melanogaster AChE (DmAChE) (Drosophila melanogaster, UniProt P07140).
T1 construct: five whole bodied Drosophila, or three Musca heads homogenized; from tissue; host or cells: whole Drosophila (Oregon-R), supernatant of homogenate
Kind of test: AChE inhibition, Ellman assay. The test is classed as biochemical. The following applies: mean, n = 3; read-out: IC50 (95% CI). The source says:
(§1) In vitro biochemical assays utilized five acetylcholinesterase (AChE) enzymes. Recombinant human AChE (hAChE) was purchased from a commercial source (lyophilized powder, Sigma C1682, St. Louis, MO, USA). Homogenates to prepare Anopheles gambiae AChE (AgAChE) were obtained from the wild type G3 strain and the resistant AKRON strain (BEI Resources; http://www.beiresources.org/). AKRON mosquitoes (from Benin and donated by M. Akogbeto) have both knockdown resistance (kdr) to pyrethroids (L1014F sodium channel mutation) and the G119S AChE mutation (ace-1R), which confers resistance to carbamates, [15]. Both strains were cultured in the Emerging Pathogens Institute, University of Florida, Gainesville, FL, USA from eggs provided by the Center for Disease Control, Atlanta, GA, USA. Homogenates were also used to prepare Aedes aegypti AChE (AeAChE) from mosquitoes provided by the CMAVE, USDA-ARS, Gainesville, FL, USA; Musca domestica AChE (MdAChE) from flies cultured in the Department of Entomology and Nematology, Medical Entomology Laboratory, University of Florida, Gainesville, FL, USA); and Drosophila melanogaster AChE (DmAChE) from flies (Oregon-R strain) cultured in the Emerging Pathogens Institute, University of Florida, Gainesville, FL, USA. Homogenate enzymes were prepared from groups of ten non-blood fed adult female mosquitoes, five whole bodied Drosophila, or three Musca heads homogenized in 1 mL of ice-cold sodium phosphate buffer (0.1 M sodium phosphate, pH 7.8) with an electric motor driven glass tissue homogenizer. The homogenate was centrifuged at 5000×g using a Sorvall Fresco refrigerated centrifuge at 4 °C for 5 minutes. The supernatant was used as the enzyme source, and all enzyme preparations contained 0.3% (v/v) triton X-100 and 1 mg/ml BSA. Prior to use, the recombinant human enzyme was diluted 500-fold into sodium phosphate buffer containing triton X-100 and 1 mg/ml BSA.
(§2) Inhibition of AChE was determined using the Ellman assay and was based on the method outlined in Carlier et al.. Briefly, enzyme solution (10 µL) was added to each well of a 96-well micro assay plate, along with 20 µL of inhibitor in DMSO/saline suspension, and 150 µL of sodium phosphate buffer. Final concentration of DMSO was 0.1% in all incubations. The plate was incubated at 25 °C for ten minutes. Ellman assay reagents, acetylthiocholine iodide (0.4 mM, final concentration) and 5,5′-dithiobis-(2-nitro)benzoic acid (0.3 mM, final concentration), were prepared fresh and 20 µL was added to the enzyme to initiate the reaction.

The target of test [4] is T2, Anopheles gambiae AChE (AgAChE), wild type G3 strain (Anopheles gambiae, UniProt Q869C3).
T2 construct: Homogenate enzymes were prepared from groups of ten non-blood fed adult female mosquitoes; from tissue; host or cells: whole adult female mosquitoes, G3 strain, supernatant of homogenate
Briefly: AChE inhibition, Ellman assay. The test is classed as biochemical.
Excerpt: as §1, §2

For test [5], the target named is T3, Aedes aegypti AChE (AeAChE) (Aedes aegypti, UniProt Q6A2E2).
T3 construct: Homogenate enzymes were prepared from groups of ten non-blood fed adult female mosquitoes; from tissue; host or cells: whole adult female mosquitoes, supernatant of homogenate
Briefly: AChE inhibition, Ellman assay. The format is biochemical.
Excerpt: as §1, §2

A further test deals with acetylcholinesterase. Kind of test: AChE inhibition, Ellman assay, summary statements across enzymes. The format is biochemical. Particulars: concentrations up to 10 mM, all enzyme preparations.
Excerpt: as §1, with “The supernatant was used as the enzyme source, and all enzyme preparations contained 0.3% (v/v) triton X-100 and 1 mg/ml BSA. Prior to use, the recombinant human enzyme was diluted 500-fold into sodium phosphate buffer containing triton X-100 and 1 mg/ml BSA.” left out
Inhibition of AChE was determined using the Ellman assay and was based on the method outlined in Carlier et al.. […] Changes in absorbance were recorded by a DYNEX Triad spectrophotometer (DYNEX Technologies, Chantilly, VA, USA) at 405 nm. Enzyme concentrations used were within the linear range, therefore eliminating the need for protein quantification.

Test [6] relates to neuromuscular junction of third instar Musca domestica larvae. Kind of test: Neuromuscular junction recordings of evoked EPSP in housefly larvae. Particulars: toluene at 5 mM. On the procedure:
Neuromuscular recordings of the evoked excitatory postsynaptic potential (EPSP) were performed on third instar housefly larvae, essentially as described previously. In short, the maggot was immobilized with pins, and the nervous and musculature systems were exposed. The preparation was then bathed in saline containing: 140 mM NaCl, 0.75 mM CaCl2, 5 mM KCl, 4 mM MgCl2, 5 mM NaHCO3, and 5 mM HEPES (pH = 7.25). The nerves were severed from the base of the CNS, which was removed, and a lateral nerve trunk innervating the longitudinal muscles was drawn into a suction electrode filled with saline. Stimuli were applied at 1 volt and of 0.2 sec duration to elicit a contraction from the longitudinal muscles. The stimulated muscle was then impaled with a recording glass capillary microelectrode filled with 1 M KCl to record effects on the evoked EPSP and membrane potential. Signals from all recordings were amplified and digitized with the use of the MacLab. Chemicals were applied to the preparation directly by hand pipetting 150 µL of solution into the bath volume of 150 µL.

Test [7] has as its target Musca domestica AChE (MdAChE) (Musca domestica, UniProt Q7YWJ9). Briefly: AChE inhibition, Ellman assay. The following applies: mean, n = 3; read-out: IC50 (95% CI). The format is biochemical.
Excerpt: as §1
as §2, with “reaction. Changes in absorbance were recorded by a DYNEX Triad spectrophotometer (DYNEX Technologies, Chantilly, VA, USA) at 405 nm. Enzyme concentrations used were within the linear range, therefore eliminating the need for protein quantification.” for “reaction.”

For test [8], the target named is T4, AKRON AgAChE (G119S AChE mutation) (Anopheles gambiae, UniProt Q869C3, G280S).
T4 construct: Homogenate enzymes were prepared from groups of ten non-blood fed adult female mosquitoes; from tissue; host or cells: whole adult female mosquitoes, AKRON strain, supernatant of homogenate
Kind of test: AChE inhibition, Ellman assay. The format is biochemical.
Excerpt: as §1
as §2, with “reaction. Changes in absorbance were recorded by a DYNEX Triad spectrophotometer (DYNEX Technologies, Chantilly, VA, USA) at 405 nm. Enzyme concentrations used were within the linear range, therefore eliminating the need for protein quantification.” for “reaction.”

The target of test [9] is T5, Recombinant human AChE (hAChE) (Homo sapiens, UniProt P22303).
T5 construct: purchased Sigma C1682
Kind of test: AChE inhibition, Ellman assay. The format is biochemical. Particulars: mean, n = 3; read-out: IC50 (95% CI).
Excerpt: as §1
as §2, with “reaction. Changes in absorbance were recorded by a DYNEX Triad spectrophotometer (DYNEX Technologies, Chantilly, VA, USA) at 405 nm. Enzyme concentrations used were within the linear range, therefore eliminating the need for protein quantification.” for “reaction.”

Test [10] has as its system octopamine receptors of Sf21 cells. Briefly: Calcium fluorescence assay in Sf21 cells. The test is classed as cell-based. On the procedure:
The Sf21 insect cell line was obtained from a commercial supplier (Invitrogen, Carlsbad, CA, USA) and maintained in log phase culture in Trichoplusia ni Medium-Formulation Hink (TNM-FH) from Sigma-Aldrich (St. Louis, MO, USA), supplemented with 10% fetal bovine serum and 100 U/ml penicillin and streptomycin (Sigma-Aldrich). Cells were cultured in a non-humidified environment and maintained at 27°C. Sf21 cells were passaged every 3–5 days according to manufacturer's instructions, and maintained for about 30 passes before being replaced by fresh cells.
Sf21 cells were plated into 96-well black-wall, clear bottom plates 24 h before calcium fluorescence assay. […] The octopamine receptor antagonist phentolamine (100 µM) was co-incubated with cells for 1 h before drug challenge. Phentolamine, octopamine, and DEET were dissolved in water, while propoxur was dissolved in 100% DMSO to make a stock solution, and in the assay, DMSO was kept to 0.1%. The experiment was repeated in triplicate with different plates of cells to obtain means and SEMs for each experimental condition.

Another test has as its system firefly light organ. Kind of test: In vivo assay for effects on firefly light organ. Set-up: species or system Photinus pyralis. The protocol: Adult firefly beetles (Photinus sp.) were collected locally (Nashville, TN) and housed in well-ventilated chambers with tree leaves. The animals had free access to 10% sucrose solution. Chemicals were dissolved in absolute ethanol and 1 µL was topically applied directly to the ventral light organ with the use of a manual pipettor. Prior to DEET application, the beetles were immobilized with molten parafilm and were mounted on corrugated cardboard for the duration of the study. Due to the time required for bioactivation of CDM, insects were treated with 1 µL of CDM and were released back into the holding chamber for three hours. After three hours, they were mounted in the previously described manner and monitored for activation of the lantern. Photographs were captured with a handheld camera (Canon PowerShot SX110 IS). Pictures were captured within five minutes, four hours, and 10 minutes post application for DEET, CDM, and propoxur, respectively. DEET- and propoxur-treated insects were monitored for at least 1 hour post exposure to ensure the response was not slow acting. The original photographs were cropped and background shadows were enhanced to increase detail of the insect using Adobe Photoshop PS5 (Adobe Systems, San Jose, CA, USA). The color or brightness of the light organ was not manipulated in any way during post-processing of the image.

Setting [11] is: mean, n = 3, read-out: IC50 (95% CI).

On to `Nc1ccncc1` [4-AP, 4-aminopyridine], for which the “increase of maximal firing frequency above control levels” value in [1] was 6 fold. For the same compound, the pEC50 in test [1] (Fig. 3D, firing declined at concentrations >1 mM, read-out: EC50, neuroexcitation) was 4.89.
For the compound `Cc1ccccc1` [Toluene, toluene], the concentration blocking channels in the test on rat Nav 1.4 channel is reported as 3 mM. Besides, in test [2], the pEC50 was 3.00. The pIC50 in test [3], in test [4], in [5], in test [7], in test [8] and in [9] was under 2.00 throughout. For the same compound, in the test on acetylcholinesterase, the “AChE inhibition in words” value is “inactive”. Moreover, the “effect on evoked EPSP in words” value in [6] is listed as “excitatory”.
On to `NCC(O)c1ccc(O)cc1` (centres unmarked) [Octopamine, octopamine], for which the pEC50 in test [1] (Fig. 3B, read-out: excitatory EC50) was 3.96. Further, the “increase in calcium fluorescence” value in test [10] (100 µM, over control cells) is given as “ca. 50%”.
On to `Cc1cc(Cl)ccc1N=CN(C)C` [CDM, chlordimeform], for which the lantern illumination result is “incomplete activation of the light organ” in the test on firefly light organ (1 µg topically on light organ) and “bright, constant glow of the entire lantern” in the test on firefly light organ (5 µg topically on light organ). For the same compound, in the test on firefly light organ (5 µg), the “duration of glow of the entire lantern” value was “approximately four”.
Consider `CCN(CC)CC(=O)Nc1c(C)cccc1C` [Lidocaine, lidocaine], for which the negative logarithm of the IC50 (pIC50) in test [3] is 2.02; in test [4] (setting [11]), under 2.00; in test [5] (setting [11]), under 2.00; in [7], 2.31; in [8], under 2.00. Besides, the “effect on evoked EPSP in words” value in [6] is on record as “antagonist”.
With `Cc1ccc(N(CC2=NCCN2)c2cccc(O)c2)cc1` [phentolamine], in test [1] (100 µM phentolamine, DEET up to 500 µM), the “block of DEET-mediated neuroexcitation” value was “completely blocked”. In addition, the “block of octopamine-mediated neuroexcitation” value in test [1] (100 µM phentolamine, octopamine up to 3 mM) was “completely blocked”. In addition, the “decline of maximal firing compared to propoxur alone” value in test [1] (100 µM phentolamine, propoxur 1 µM, not statistically significant) is listed as 21%. Also, the “effect on neuroexcitation by propoxur” value in test [1] (100 µM phentolamine, propoxur below 1 µM) is recorded as “no effect”. Moreover, the “effect on 4-AP mediated neuroexcitation” value in test [1] (phentolamine) was “no effect”. In addition, the “effect on DEET- and octopamine-mediated activation of calcium fluorescence” value in test [10] (100 µM phentolamine pre-exposure 1 h) was “abolished”.
